Source: US20190046627A1, “USE OF A GNP-LLO91-99 COMPLEX FOR THE TREATMENT AND PREVENTION OF CANCER” (FUNDACIÓN INSTITUTO DE INVESTIGACIÓN MARQUES DE VALDECILLA, priority 2016, published 2019)
“Also recorded” adds a separate entry of the source. No end group written: not given here.

Columns and labels:
murine melanoma B16OVA = test: Reduction of tumor size, monotherapy or combination with immunological control point immunotherapies (Example 4); format: in vivo, mice; conditions: s.c. B16OVA
Protocol: For the study of the reduction of the tumor in adults and increasing the survival making use of different immunotherapies with immunological control points and their comparison as a monotherapy or combination therapy with that of the invention, 5×10^5 cells of murine melanoma B16OVA were inoculated in a subcutaneous manner just like in FIG. 1 (Example 2). Following 7 days post-inoculation, 50 μg/ml of the therapy of the invention were inoculated in the tumors for 7 days as a monotherapy, GNP-LLO91-99 (gluconanoparticles synthesized with the peptide from listeriolysin O of Listeria monocytogenes, LLO91-99), or in combination with the following immunotherapies with immunological control points, anti-CTLA-4 or anti-PD-1 in a dose of 100 μg/mouse every 2 days up to a total of 7 days or no particle (NT).
Following this treatment, the mice were sacrifice at different times following the therapies, 14, 21 or 30 days in total. The results are shown in FIG. 3A following the sacrifice of the mice, recovery of the tumors and measuring of their size with a gauge. In another similar experiment, the mice are not sacrificed and the effect of the therapies is evaluated in the survival of the mice.

murine melanoma B16F10 = test: Reduction of the size of the tumor in newborns (Example 6); format: in vivo; conditions: 9-day old Balb/c mice, s.c. B16F10 established 5 days, 50 μg/ml in the tumors for 5 days
Protocol: For the study of the reduction of the size of the tumor in newborns making use of different therapies and their comparison with that of the invention, 5×10^5 cells of murine melanoma B16F10 were inoculated in a subcutaneous manner in the interscapular area of 9-day old female mice of the Balb/c strain.
Following 5 days post-inoculation, 50 μg/ml of the following therapies were inoculated in the tumors for 5 days: LLO91-99 (only peptide from listeriolysin O of Listeria monocytogenes, LLO91-99), GNP (empty gluconanoparticles), GNP-LLO91-99 (gluconanoparticles synthesized with the peptide from listeriolysin O of Listeria monocytogenes, LLO91-99), GNP-GAPDH1-22 (nanoparticles synthesized with the peptide from glyceraldehyde-3-phosphate dehydrogenase of Listeria monocytogenes, GAPDH1-22). As a control, a vector previously used in therapy was also included, dendritic cells loaded with the LLO91-99 (1×10^5 DC-LLO91-99) peptide.
Following this treatment, the mice were sacrificed and the tumors recovered, measuring their size with a gauge.

A-375, human melanoma [1] = test: In vitro apoptosis-necrosis, flow cytometry annexin V-APC / 7-ADD; format: cell-based; conditions: 10 μg/ml, 16 hours, A375
Protocol: (§1) 1.—Tumor cells. The cells used are: Hepa1-6, murine hepatocarcinoma, TC-1, murine lung carcinoma; B16F10, murine melanoma; A-375, human melanoma; hamster melanoma (ATCC).
(§2) 2.—In vitro apoptosis-necrosis. The different tumor cells (1×10^6 cells) are treated with 10 μg/ml of the GNP-LLO91-99 gold nanoparticles in culture plates, 16 hours prior to the apoptosis-necrosis analysis, including cells of each type of tumor without treatment with the gold nanoparticles (control). Following washing, the cells are analyzed by means of flow cytometry using two specific products, annexin V conjugated with the APC fluorochrome and the fluorescent marker for binding to DNA, 7-ADD (7-amino-actinomycin D). Apoptosis and necrosis in the tumor cells are analyzed by means of the differential marking with annexin V-APC and 7-ADD expressed as percentages. While the necrosis is indicated as the percentage of cells doubly marked with annexin V-APC and 7-ADD, the apoptosis is expressed as the percentage of cells marked only with annexin V.

B16F10, murine melanoma [2] = test: as above; format: cell-based; conditions: 10 μg/ml, 16 hours
Protocol: as §1, §2

[3] = test system: Hepa1-6, murine hepatocarcinoma; test: as above; format: cell-based; conditions: 10 μg/ml, 16 hours
Protocol: as §1, §2

[4] = test system: TC-1, murine lung carcinoma; test: as above; format: cell-based; conditions: 10 μg/ml, 16 hours
Protocol: as §1, §2

glioblastoma (RG-1) [5] = test: as above; format: cell-based; conditions: 10 μg/ml, 16 hours
Protocol: as §2

[6] = as above; format: cell-based, hamster; conditions: 10 μg/ml, 16 hours, CHO
Protocol: as §1, §2

A-375, human melanoma [7] = test: In vitro activation cell markers, flow cytometry; format: cell-based; conditions: 10 μg/ml pre-treatment, A375
Protocol: as §1
(§3) 3.—Study of in vitro activation cell markers. The markers of the cell surface of the different tumor cells (1×10^6 cells) that are pre-treated or that are not pre-treated with 10 μg/ml of the GNP-LLO91-99 gold nanoparticles similar to the apoptosis process are analyzed by means of flow cytometry using the following antibodies (Miltenyi Biotech): anti-CD86-V450, anti-CD80-FITC, anti-MHC-II-APC, CD11c-PE, anti-NCAM-PE, anti-PD-1-V450.

B16F10, murine melanoma [8] = test: In vitro activation cell markers, flow cytometry; format: cell-based; conditions: 10 μg/ml pre-treatment
Protocol: as §1, §3

[9] = test system: hepatocarcinoma (Hepa 1-6); test: In vitro activation cell markers, flow cytometry; format: cell-based, murine; conditions: 10 μg/ml pre-treatment
Protocol: as §1, §3

lung cancer cells (TC-1) = test: In vitro activation cell markers, flow cytometry; format: cell-based, murine; conditions: 10 μg/ml pre-treatment
Protocol: as §1, §3

glioblastoma (RG-1) [10] = test: In vitro activation cell markers, flow cytometry; format: cell-based; conditions: 10 μg/ml pre-treatment
Protocol: as §3

ovary tumor cells (CHO) = test: In vitro activation cell markers, flow cytometry; format: cell-based, hamster; conditions: 10 μg/ml pre-treatment
Protocol: as §1, §3

ovary tumor cells = test: Subcutaneous tumor transplant model (Example 9); format: in vivo, mice; conditions: subcutaneous transplants, C57BL/6, 50 μg/ml in-situ for 7 days

Substance: GNP-LLO91-99: gluconanoparticles synthesized with the peptide from listeriolysin O of Listeria monocytogenes, LLO91-99 (GYKDGNEYI; also: gold glyconanoparticle conjugate; UniProt P13128 91-99, looked up, fragment)
- tumor regression (murine melanoma B16OVA; combination therapy with anti-CTLA-4 (100 μg/mouse every 2 days), at 14 days): up to 90%
- tumor regression (murine melanoma B16OVA; combination therapy with anti-CTLA-4 (100 μg/mouse every 2 days), at 30 days): up to 90%
- tumor regression (murine melanoma B16OVA; combination with anti-PD-1 (100 μg/mouse every 2 days), at 14 days): 100%
- tumor regression (murine melanoma B16OVA; combination with anti-PD-1 (100 μg/mouse every 2 days), at 30 days): 100%
- tumor regression (murine melanoma B16OVA; monotherapy, 50 μg/ml in the tumors, 7 days): 80%
- tumor regression (murine melanoma B16OVA; monotherapy, 50 μg/ml in the tumors, at 14 days): 90%
- tumor regression (murine melanoma B16OVA; monotherapy, 50 μg/ml in the tumors, at 30 days): 90%
- tumor regression in newborns (murine melanoma B16F10): 95%
- effect of inducing apoptosis (A-375, human melanoma [1]): much more pronounced
- effect of inducing apoptosis (B16F10, murine melanoma [2]): much more pronounced
- effect of inducing apoptosis [3]: much more pronounced
- induction of tumor apoptosis and necrosis [3]: induce both tumor apoptosis and necrosis
- effect of inducing apoptosis [4]: much more pronounced
- induction of tumor apoptosis and necrosis [4]: induce both tumor apoptosis and necrosis
- effect of inducing apoptosis (glioblastoma (RG-1) [5]): not as significant
- induction of tumor apoptosis and necrosis (glioblastoma (RG-1) [5]): induce both necrosis and apoptosis with the same percentages; also recorded: induce both tumor apoptosis and necrosis
- induction of tumor apoptosis and necrosis / inhibitory effect [6]: do not cause any inhibitory effect
- expression of immune cell activation markers (A-375, human melanoma [7]): boosted the expression of various activation markers such as MHC-I, MHC-II, CD80 and PD-1
- expression of immune cell activation markers (B16F10, murine melanoma [8]): boosted the expression of various activation markers such as MHC-I, MHC-II, CD80 and PD-1
- expression of immune cell activation markers ([9]; Hepa 1-6): boosted the expression of various activation markers such as MHC-I, MHC-II, CD80 and PD-1
- expression of PD-1 ([9]; hepatocarcinomas): high expression of PD-1
- expression of immune cell activation markers (lung cancer cells (TC-1)): only boosted the expression of MHC-I
- expression of MHC-I (glioblastoma (RG-1) [10]): inhibition
- expression of MHC-II (glioblastoma (RG-1) [10]): no variation
- expression of NCAM-1 (glioblastoma (RG-1) [10]): no variation
- expression of immune cell activation markers (glioblastoma (RG-1) [10]): no induction of expression of activation markers
- expression of immune cell activation markers (ovary tumor cells (CHO)): did not undergo a variation in any of the markers analyzed
- in vivo inhibitory effect of the tumor (ovary tumor cells): does not cause any effect
